Drawing on ChEMBL document CHEMBL1158275, “Isolation of two new antiinflammatory biflavanoids from Sarcophyte piriei” (J Nat Prod, 1996), this text covers IC50 for five compounds.

The subject of test [1] is Neutrophil. Description: Inhibition of PAF-induced exocytosis in neutrophil by spectrophotometer. In kind it is functional, cell-based.
The nature of test [2]: Inhibition of prostaglandin synthesis in bovine seminal vesicle microsomes using [14C]arachidonic acid. Format: functional, Bos taurus, Microsome.

Compound `C[C@@H]1C(=O)O[C@H]2[C@H](O)[C@@]34[C@H]5C[C@@H](C(C)(C)C)[C@]36[C@@H](OC(=O)[C@@H]6O)O[C@@]4(C(=O)O5)[C@@]12O` [GINKOLIDE B] returned an IC50 in test [1] of 80 µM.
Turning to `O=C1C[C@H](c2ccc(O)c(O)c2)Oc2c1c(O)cc1c2[C@@H]2C[C@@](c3ccc(O)c(O)c3)(Oc3cc(O[C@@H]4O[C@H](CO)[C@@H](O)[C@H](O)[C@H]4O)cc(O)c32)O1` [DIINSININOL], the concentration for half-maximal inhibition (IC50) turned out to be 9.2 µM in test [2] (read-out: IC50) and 49 µM in test [1].
Turning to `COc1ccc2c(c1)c(CC(=O)O)c(C)n2C(=O)c1ccc(Cl)cc1` [INDOMETHACIN], in test [2] (read-out: IC50), the IC50 was found to be 0.56 µM.
Regarding `CC(=O)Oc1ccccc1C(=O)O` [ASPIRIN], the IC50 in test [2] stood at 200 µg/mL.
Take `O=C1C[C@H](c2ccc(O)cc2)Oc2c1c(O)cc1c2[C@@H]2C[C@@](c3ccc(O)c(O)c3)(Oc3cc(O[C@@H]4O[C@H](CO)[C@@H](O)[C@H](O)[C@H]4O)cc(O)c32)O1` [DIINSININ]: the IC50 in test [2] (read-out: IC50) was 13.1 µM; in test [1] it was 39 µM.
